# Data from US20020119979A1, “Acyclic compounds and methods for treating multidrug resistance” (priority 2000, published 2002).
# System: NIH-MDR1-G185 cells
# Experiment: Fluorescent substrate (BODIPY-FL Taxol) accumulation assay
# Type: cell-based
# Settings: BODIPY-FL taxol 500 nM, MDR modulator 10 micromolar, 40 min at 37° C.; fluorescence in NIH-MDR1-G185 cells in presence / absence of modulator
# Protocol: Fluorescent Substrate Accumulation Assay
# NIH-MDR1-GI 85 cells (obtained from M. Gottesman, NI1H) were harvested and resuspended in RPMI-1640 containing L-glutamine, 10% Cosmic Calf Serum and penicillin-streptomycin. Cell suspension aliquots of 175 microliters (1×10^5 cells) were added to individual wells of a 96 well microtiter plate and preincubated for 15 min at 37° C. with 20 microliters MDR modulator diluted in cell culture media to give a final concentration of 10 micromolar. Control wells received no modulating agent. BODIPY-FL Taxol (Molecular Probes, Eugene, Oreg.) was added to each well in 10 microliter aliquots to give a final concentration of 500 nM and cells were incubated for 40 min at 37° C. Cells were centrifuged at 100× g for 5 min at 4° C. and the cell pellet washed with 200 microliters cold PBS to remove fluorescent medium from wells. Cells were centrifuged once more, media removed, and cells resuspended in 200 microliters cold PBS. Fluorescence accumulation was measured in a fluorescence plate reader fitted with an excitation filter of 485 nm and an emission filter of 538 nm. BODIPY-FL taxol accumulation in the cells was calculated as follows:
# Accumulation Index=(fluorescence in NIH-MDR1-G185 cells in the presence of modulator)/(fluorescence in NIH-MDR1-G185 cells in absence of modulator) […]
smiles,measurement,value
"O=C(CCCNC[C@@H](O)COc1cccc2ncccc12)NC(CCCc1ccccc1)CCCc1ccccc1 [Example 25, N-{1-[2-(R)-Hydroxy-3-(quinolin-5-yloxy)-propyl]}-4-aminobutyric acid [4-phenyl-1-(3-phenyl-propyl)-butyl]-amide]",Accumulation Index,10
